{"source": "ChEMBL document CHEMBL4680147", "about": "“Discovery of 6'-chloro-N-methyl-5'-(phenylsulfonamido)-[3,3'-bipyridine]-5-carboxamide (CHMFL-PI4K-127) as a novel Plasmodium falciparum PI(4)K inhibitor with potent antimalarial activity against both blood and liver stages of Plasmodium” (Eur J Med Chem, 2020)", "key": {"Plasmodium berghei": {"system": "Plasmodium berghei", "assay": "Antimalarial activity against liver stage luciferase-expressing Plasmodium berghei sporozoites infected in BALB/c mouse assessed as suppression of parasitemia at 1 mg/kg, po treated for 2 hrs followed by parasite infection and measured upto 196 hrs post-infection by luciferase based in vivo real-time imaging analysis", "assay_type": "functional", "conditions": "time 198 hrs"}, "[1]": {"assay": "AUC(0 to t) in mouse at 10 mg/kg, po", "assay_type": "ADME, organism-based", "design": "dose 10 mg/kg", "conditions": "in vivo"}, "[2]": {"assay": "Selectivity index, ratio of IC50 for human VPS34 to IC50 for recombinant His-tagged Plasmodium falciparum 3D7 PI4K expressed in baculovirus infected Sf9 cells"}, "[3]": {"assay": "Cmax in Sprague-Dawley rat at 1 mg/kg, iv", "assay_type": "ADME, organism-based", "design": "route intravenous, dose 1 mg/kg", "conditions": "in vivo"}, "[4]": {"assay": "Mean residence time (0 to t) in mouse at 10 mg/kg, po", "assay_type": "ADME, organism-based", "conditions": "in vivo"}, "[5]": {"assay": "Half life in Sprague-Dawley rat at 1 mg/kg, iv", "assay_type": "ADME, organism-based", "conditions": "in vivo"}, "[6]": {"assay": "Oral bioavailability in Sprague-Dawley rat at 10 mg/kg", "assay_type": "ADME, organism-based", "conditions": "in vivo"}, "Plasmodium falciparum [7]": {"system": "Plasmodium falciparum", "assay": "Antimalarial activity against blood stage Plasmodium falciparum harboring PI4K Y1342I/T1360A mutant infected in human O+ erythrocytes incubated for 72 hrs by SYBR Green 1 dye based fluorescence assay", "assay_type": "functional, organism-based", "conditions": "Erythrocyte"}, "[8]": {"assay": "Apparent volume of distribution in Sprague-Dawley rat at 1 mg/kg, iv", "assay_type": "ADME, organism-based", "conditions": "in vivo, read-out: Vz"}, "[9]": {"molecular_target": "T1, Phosphatidylinositol 4,5-bisphosphate 3-kinase catalytic subunit delta isoform (Homo sapiens, UniProt O00329)", "T1 sequence (O00329 whole entry)": "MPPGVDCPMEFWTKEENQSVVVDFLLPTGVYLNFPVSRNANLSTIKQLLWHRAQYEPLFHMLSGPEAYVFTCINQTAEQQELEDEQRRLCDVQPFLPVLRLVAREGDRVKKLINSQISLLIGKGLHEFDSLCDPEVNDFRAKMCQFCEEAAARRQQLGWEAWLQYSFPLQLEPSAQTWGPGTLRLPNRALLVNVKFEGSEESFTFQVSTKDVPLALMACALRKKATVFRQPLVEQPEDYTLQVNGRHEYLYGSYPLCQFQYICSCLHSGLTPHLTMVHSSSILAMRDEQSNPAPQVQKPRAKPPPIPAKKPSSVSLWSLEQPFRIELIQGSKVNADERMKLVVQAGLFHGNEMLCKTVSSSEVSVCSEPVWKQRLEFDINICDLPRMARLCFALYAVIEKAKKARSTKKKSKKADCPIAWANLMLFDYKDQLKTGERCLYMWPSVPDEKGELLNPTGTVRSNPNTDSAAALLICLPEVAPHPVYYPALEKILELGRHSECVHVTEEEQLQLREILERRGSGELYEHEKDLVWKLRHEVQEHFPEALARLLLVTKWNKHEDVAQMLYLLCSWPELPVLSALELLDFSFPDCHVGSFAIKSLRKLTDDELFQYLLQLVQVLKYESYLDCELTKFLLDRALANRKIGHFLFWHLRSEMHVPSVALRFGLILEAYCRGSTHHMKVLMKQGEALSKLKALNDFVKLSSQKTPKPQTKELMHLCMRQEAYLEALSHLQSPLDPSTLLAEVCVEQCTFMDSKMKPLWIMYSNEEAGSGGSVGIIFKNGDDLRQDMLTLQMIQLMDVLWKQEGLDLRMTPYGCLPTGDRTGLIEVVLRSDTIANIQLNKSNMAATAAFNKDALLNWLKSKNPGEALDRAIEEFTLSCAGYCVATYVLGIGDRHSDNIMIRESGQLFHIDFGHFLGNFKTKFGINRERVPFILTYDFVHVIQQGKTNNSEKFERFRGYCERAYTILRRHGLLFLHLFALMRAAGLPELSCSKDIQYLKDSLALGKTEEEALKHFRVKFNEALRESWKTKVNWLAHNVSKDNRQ", "assay": "Inhibition of human PI3Kdelta by ADP-Glo kinase assay"}, "[10]": {"molecular_target": "Phosphatidylinositol 4-phosphate 3-kinase C2 domain-containing subunit beta (Homo sapiens, UniProt O00750)", "sequence (O00750 whole entry, the tested form may be a part)": "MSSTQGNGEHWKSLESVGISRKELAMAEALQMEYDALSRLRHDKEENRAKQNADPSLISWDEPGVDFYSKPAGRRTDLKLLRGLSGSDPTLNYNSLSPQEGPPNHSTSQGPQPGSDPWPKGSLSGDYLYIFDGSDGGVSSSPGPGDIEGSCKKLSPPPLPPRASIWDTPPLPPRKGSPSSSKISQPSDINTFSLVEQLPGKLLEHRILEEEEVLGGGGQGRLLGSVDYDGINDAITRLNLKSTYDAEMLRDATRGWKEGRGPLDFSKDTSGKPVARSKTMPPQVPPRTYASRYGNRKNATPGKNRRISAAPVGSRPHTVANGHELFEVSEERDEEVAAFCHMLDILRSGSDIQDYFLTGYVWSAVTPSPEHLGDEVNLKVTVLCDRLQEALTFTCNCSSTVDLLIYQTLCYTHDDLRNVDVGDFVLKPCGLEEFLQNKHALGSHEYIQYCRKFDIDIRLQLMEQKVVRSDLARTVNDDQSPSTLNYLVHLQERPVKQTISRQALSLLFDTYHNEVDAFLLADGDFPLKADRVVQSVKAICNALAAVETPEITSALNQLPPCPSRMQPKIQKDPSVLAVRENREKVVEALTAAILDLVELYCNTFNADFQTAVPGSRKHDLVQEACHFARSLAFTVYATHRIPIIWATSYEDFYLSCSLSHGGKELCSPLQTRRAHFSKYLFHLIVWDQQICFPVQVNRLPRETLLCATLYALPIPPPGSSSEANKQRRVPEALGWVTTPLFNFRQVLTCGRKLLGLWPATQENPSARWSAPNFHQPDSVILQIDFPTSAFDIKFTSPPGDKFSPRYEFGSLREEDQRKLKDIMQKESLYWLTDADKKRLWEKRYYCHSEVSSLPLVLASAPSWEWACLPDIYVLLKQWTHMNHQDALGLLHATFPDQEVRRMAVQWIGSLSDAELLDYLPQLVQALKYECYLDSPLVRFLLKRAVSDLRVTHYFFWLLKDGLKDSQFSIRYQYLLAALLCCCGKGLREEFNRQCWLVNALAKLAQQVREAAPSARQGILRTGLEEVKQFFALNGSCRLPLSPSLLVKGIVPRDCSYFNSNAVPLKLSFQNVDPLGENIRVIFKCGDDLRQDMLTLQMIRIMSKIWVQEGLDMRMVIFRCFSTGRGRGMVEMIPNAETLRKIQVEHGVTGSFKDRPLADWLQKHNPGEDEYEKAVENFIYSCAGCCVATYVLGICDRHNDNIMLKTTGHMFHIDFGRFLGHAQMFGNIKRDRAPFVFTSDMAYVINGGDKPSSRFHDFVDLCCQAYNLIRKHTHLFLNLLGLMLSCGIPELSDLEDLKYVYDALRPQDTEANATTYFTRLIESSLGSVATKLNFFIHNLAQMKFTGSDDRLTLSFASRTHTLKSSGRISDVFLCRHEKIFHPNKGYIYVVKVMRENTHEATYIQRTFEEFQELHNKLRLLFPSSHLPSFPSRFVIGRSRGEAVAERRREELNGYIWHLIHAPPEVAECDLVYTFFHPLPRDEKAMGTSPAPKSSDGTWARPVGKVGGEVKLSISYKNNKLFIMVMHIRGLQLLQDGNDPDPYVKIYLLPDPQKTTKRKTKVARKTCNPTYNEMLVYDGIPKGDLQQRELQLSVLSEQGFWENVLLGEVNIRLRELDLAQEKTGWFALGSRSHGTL", "assay": "Inhibition of human PIK3C2beta by ADP-Glo kinase assay"}, "[11]": {"assay": "Inhibition of recombinant His-tagged Plasmodium falciparum 3D7 PI4K expressed in baculovirus infected Sf9 cells using PI:PS as substrate incubated for 1 hr in presence of ATP by ADP-Glo kinase assay"}, "[12]": {"assay": "AUC(0 to infinity) in Sprague-Dawley rat at 10 mg/kg, po", "assay_type": "ADME, organism-based", "design": "time infinity, route oral, dose 10 mg/kg", "conditions": "in vivo"}, "[13]": {"assay": "Inhibition of human PIK3C2alpha by ADP-Glo kinase assay"}, "[14]": {"assay": "Apparent volume of distribution in mouse at 1 mg/kg, iv", "assay_type": "ADME, organism-based", "conditions": "in vivo, read-out: Vz"}, "Plasmodium falciparum [15]": {"system": "Plasmodium falciparum", "assay": "Antimalarial activity against chloroquine resistant Plasmodium falciparum FAB9 infected in human O+ erythrocytes incubated for 72 hrs by SYBR Green 1 dye based fluorescence assay", "assay_type": "functional, organism-based", "conditions": "FAB9, Erythrocyte"}, "[16]": {"molecular_target": "Phosphatidylinositol 4,5-bisphosphate 3-kinase catalytic subunit beta isoform (Homo sapiens, UniProt P42338)", "sequence (P42338 whole entry, canonical isoform)": "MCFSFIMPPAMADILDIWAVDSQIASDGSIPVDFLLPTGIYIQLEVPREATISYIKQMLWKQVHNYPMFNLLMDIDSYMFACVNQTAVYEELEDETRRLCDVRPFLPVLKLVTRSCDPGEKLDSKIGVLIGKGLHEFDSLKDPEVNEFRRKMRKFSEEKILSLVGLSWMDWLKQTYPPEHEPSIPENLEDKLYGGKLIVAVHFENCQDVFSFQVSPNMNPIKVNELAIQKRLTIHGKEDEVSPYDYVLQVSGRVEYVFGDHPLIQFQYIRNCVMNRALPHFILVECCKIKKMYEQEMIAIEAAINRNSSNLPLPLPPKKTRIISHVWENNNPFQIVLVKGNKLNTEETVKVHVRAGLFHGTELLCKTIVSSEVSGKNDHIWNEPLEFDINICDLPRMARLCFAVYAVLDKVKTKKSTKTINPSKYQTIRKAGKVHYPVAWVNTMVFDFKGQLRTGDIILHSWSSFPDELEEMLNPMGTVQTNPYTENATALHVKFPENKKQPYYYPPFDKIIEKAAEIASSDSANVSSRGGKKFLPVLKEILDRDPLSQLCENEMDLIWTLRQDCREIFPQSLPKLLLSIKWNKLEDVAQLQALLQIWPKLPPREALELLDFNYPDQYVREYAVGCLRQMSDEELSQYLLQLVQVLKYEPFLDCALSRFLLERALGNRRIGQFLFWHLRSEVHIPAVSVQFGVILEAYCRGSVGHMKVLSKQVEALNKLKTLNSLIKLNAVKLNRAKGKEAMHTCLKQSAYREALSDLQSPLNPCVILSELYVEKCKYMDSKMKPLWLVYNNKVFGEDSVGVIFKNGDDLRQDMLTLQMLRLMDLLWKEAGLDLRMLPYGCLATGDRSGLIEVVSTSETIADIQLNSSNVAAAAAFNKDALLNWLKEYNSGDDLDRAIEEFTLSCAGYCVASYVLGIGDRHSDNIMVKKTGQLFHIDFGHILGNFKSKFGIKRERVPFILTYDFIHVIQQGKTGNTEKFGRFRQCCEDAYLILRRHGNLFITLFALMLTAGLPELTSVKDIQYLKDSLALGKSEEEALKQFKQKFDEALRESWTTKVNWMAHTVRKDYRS", "assay": "Inhibition of human PI3Kbeta by ADP-Glo kinase assay"}, "[17]": {"assay": "Mean residence time (0 to t) in mouse at 1 mg/kg, iv", "assay_type": "ADME, organism-based", "conditions": "in vivo"}, "Plasmodium falciparum [18]": {"system": "Plasmodium falciparum", "assay": "Antimalarial activity against blood stage Plasmodium falciparum harboring PI4K Y1342I mutant infected in human O+ erythrocytes incubated for 72 hrs by SYBR Green 1 dye based fluorescence assay", "assay_type": "functional, organism-based", "conditions": "Erythrocyte"}, "Plasmodium falciparum [19]": {"system": "Plasmodium falciparum", "assay": "Antimalarial activity against sulphadoxine-resistant blood stage Plasmodium falciparum 3D7 infected in human O+ erythrocytes incubated for 72 hrs by SYBR Green 1 dye based fluorescence assay", "assay_type": "functional, organism-based", "conditions": "3D7, Erythrocyte"}, "[20]": {"assay": "Apparent clearance in Sprague-Dawley rat at 1 mg/kg, iv", "assay_type": "ADME, organism-based", "conditions": "in vivo, read-out: CL(app) (converted)"}, "[21]": {"assay": "Selectivity index, ratio of IC50 for human PI3Kalpha to IC50 for recombinant His-tagged Plasmodium falciparum 3D7 PI4K expressed in baculovirus infected Sf9 cells"}, "Plasmodium falciparum [22]": {"system": "Plasmodium falciparum", "assay": "Antimalarial activity against Plasmodium falciparum GB4 infected in human O+ erythrocytes incubated for 72 hrs by SYBR Green 1 dye based fluorescence assay", "assay_type": "functional, organism-based", "conditions": "GB4, Erythrocyte"}, "Plasmodium falciparum [23]": {"system": "Plasmodium falciparum", "assay": "Antimalarial activity against pyrimethamine/chloroquine resistant Plasmodium falciparum PC26 infected in human O+ erythrocytes incubated for 72 hrs by SYBR Green 1 dye based fluorescence assay", "assay_type": "functional, organism-based", "conditions": "PC26, Erythrocyte"}, "[24]": {"assay": "Selectivity index, ratio of IC50 for human PI3Kgamma to IC50 for recombinant His-tagged Plasmodium falciparum 3D7 PI4K expressed in baculovirus infected Sf9 cells"}, "Plasmodium falciparum [25]": {"system": "Plasmodium falciparum", "assay": "Antimalarial activity against artemisinin resistant Plasmodium falciparum 803 infected in human O+ erythrocytes incubated for 72 hrs by SYBR Green 1 dye based fluorescence assay", "assay_type": "functional, organism-based", "conditions": "Plasmodium falciparum, 803, Erythrocyte"}, "[26]": {"assay": "Half life in Sprague-Dawley rat at 10 mg/kg, po", "assay_type": "ADME, organism-based", "conditions": "in vivo"}, "[27]": {"assay": "AUC(0 to infinity) in mouse at 1 mg/kg, iv", "assay_type": "ADME, organism-based", "design": "time infinity, route intravenous, dose 1 mg/kg", "conditions": "in vivo"}, "[28]": {"molecular_target": "Phosphatidylinositol 4-kinase beta (Homo sapiens, UniProt Q9UBF8)", "sequence (Q9UBF8 whole entry)": "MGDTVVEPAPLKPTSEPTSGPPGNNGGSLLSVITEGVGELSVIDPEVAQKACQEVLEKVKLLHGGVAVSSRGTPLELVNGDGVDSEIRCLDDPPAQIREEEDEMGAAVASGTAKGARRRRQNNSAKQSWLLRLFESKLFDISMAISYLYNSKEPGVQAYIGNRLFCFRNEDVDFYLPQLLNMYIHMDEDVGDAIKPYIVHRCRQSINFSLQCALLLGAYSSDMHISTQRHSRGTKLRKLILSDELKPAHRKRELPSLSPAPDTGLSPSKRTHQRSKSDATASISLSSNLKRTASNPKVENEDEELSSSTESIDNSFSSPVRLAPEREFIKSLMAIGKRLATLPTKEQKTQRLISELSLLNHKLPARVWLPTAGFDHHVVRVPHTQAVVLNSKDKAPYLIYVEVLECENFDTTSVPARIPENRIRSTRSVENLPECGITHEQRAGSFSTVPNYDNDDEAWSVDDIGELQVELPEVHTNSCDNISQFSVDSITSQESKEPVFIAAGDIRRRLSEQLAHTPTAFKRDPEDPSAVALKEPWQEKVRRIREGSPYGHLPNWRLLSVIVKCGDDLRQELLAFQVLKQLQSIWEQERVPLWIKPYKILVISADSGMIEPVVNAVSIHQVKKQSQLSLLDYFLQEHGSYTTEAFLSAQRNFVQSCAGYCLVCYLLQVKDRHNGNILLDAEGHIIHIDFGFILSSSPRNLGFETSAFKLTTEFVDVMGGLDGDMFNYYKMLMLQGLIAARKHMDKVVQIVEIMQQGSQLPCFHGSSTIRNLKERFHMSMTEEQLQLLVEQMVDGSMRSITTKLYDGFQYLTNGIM", "assay": "Inhibition of human PI4K3beta by ADP-Glo kinase assay"}, "[29]": {"assay": "Mean residence time (0 to t) in Sprague-Dawley rat at 10 mg/kg, po", "assay_type": "ADME, organism-based", "conditions": "in vivo"}, "[30]": {"assay": "AUC(0 to t) in Sprague-Dawley rat at 10 mg/kg, po", "assay_type": "ADME, organism-based", "design": "dose 10 mg/kg", "conditions": "in vivo"}}}
{"smiles": "CNC(=O)c1cncc(-c2cnc(Cl)c(NS(=O)(=O)c3ccccc3)c2)c1", "values": [{"measurement": "Activity", "setting": "Plasmodium berghei", "result": 100, "unit": "%"}, {"measurement": "AUC(0-t)", "setting": "[1]", "result": 2630, "unit": "ng·h/mL"}, {"measurement": "Ratio IC50", "setting": "[2]", "result": 400}, {"measurement": "Cmax", "setting": "[3]", "result": 5010, "unit": "ng/mL"}, {"measurement": "MRT last", "setting": "[4]", "result": 4.4, "unit": "h"}, {"measurement": "half-life", "setting": "[5]", "result": 3.5, "unit": "h"}, {"measurement": "bioavailability", "setting": "[6]", "result": 89, "unit": "%"}, {"measurement": "EC50", "setting": "Plasmodium falciparum [7]", "result": 248, "unit": "nM"}, {"measurement": "Vd", "setting": "[8]", "result": 2.6, "unit": "L/kg"}, {"measurement": "IC50", "setting": "[9]", "result": 104, "unit": "nM"}, {"measurement": "IC50", "setting": "[10]", "result": "> 10000", "unit": "nM"}, {"measurement": "IC50", "setting": "[11]", "result": 0.9, "unit": "nM"}, {"measurement": "AUC(0-inf)", "setting": "[12]", "result": 19300, "unit": "ng·h/mL"}, {"measurement": "IC50", "setting": "[13]", "result": "> 10000", "unit": "nM"}, {"measurement": "Vd", "setting": "[14]", "result": 12.1, "unit": "L/kg"}, {"measurement": "EC50", "setting": "Plasmodium falciparum [15]", "result": 23.6, "unit": "nM"}, {"measurement": "IC50", "setting": "[16]", "result": 392, "unit": "nM"}, {"measurement": "MRT last", "setting": "[17]", "result": 3.1, "unit": "h"}, {"measurement": "EC50", "setting": "Plasmodium falciparum [18]", "result": 10.2, "unit": "nM"}, {"measurement": "EC50", "setting": "Plasmodium falciparum [19]", "result": 25.1, "unit": "nM"}, {"measurement": "clearance", "setting": "[20]", "result": 8.33, "unit": "mL/min/kg"}, {"measurement": "Ratio IC50", "setting": "[21]", "result": 100}, {"measurement": "EC50", "setting": "Plasmodium falciparum [22]", "result": 47.8, "unit": "nM"}, {"measurement": "EC50", "setting": "Plasmodium falciparum [23]", "result": 44, "unit": "nM"}, {"measurement": "Ratio IC50", "setting": "[24]", "result": 100}, {"measurement": "EC50", "setting": "Plasmodium falciparum [25]", "result": 30.9, "unit": "nM"}, {"measurement": "half-life", "setting": "[26]", "result": 2.9, "unit": "h"}, {"measurement": "AUC(0-inf)", "setting": "[27]", "result": 292, "unit": "ng·h/mL"}, {"measurement": "IC50", "setting": "[28]", "result": 433, "unit": "nM"}, {"measurement": "MRT last", "setting": "[29]", "result": 4.3, "unit": "h"}, {"measurement": "AUC(0-t)", "setting": "[30]", "result": 19300, "unit": "ng·h/mL"}]}
